The text below walks through data of patent US11339147B2, “Lactam compound as FXR receptor agonist” (CSPC ZHONGQI PHARMACEUTICAL TECHNOLOGY (SHIJIAZHUANG) CO., …, priority 2017, dated 2022).

The structures appear in SMILES notation. Read-outs that look alike come from different tables or passages of the source.

Assay [1] relates to NASH model. Put plainly: In vivo efficacy test: NASH model in mice by high-fat diet feeding and CCl4 induction. Also noted: species or system C57/BL6 mice. The note with it: intragastric once a day for 28 days; for gene expression of collagen-alpha in the liver: FIG. 3; for total cholesterol (TC) and triglyceride (TG) levels in the liver: FIG. 2. An excerpt: In this test, NASH model was established on mice by two procedures of high-fat diet feeding and CCl4 induction to test the effects of compounds on treating NASH. Briefly, the modeling process includes feeding C57/BL6 mice with high-fat diet to induce obesity in mice and produce non-alcoholic fatty liver disease; selecting 40 obese mice with a body weight >35 g when >80% of mice reached 35 g or more, continuously feeding with high-fat diet while intraperitoneal injection of CCl4 twice a week for four weeks; as for 10 normal animals in the same batch, feeding intraperitoneally with olive oil as a healthy control. The day when CCl4 feeding was started was set to the 0th day, and the time when CCl4 feeding was started was set to 0th hour. On the day when CCl4 feeding was started, the intragastric administration was started, 5 mL/kg once a day for 4 weeks, namely 28 days. Test doses of the compound were 15 mg/kg, 30 mg/kg, 60 mg/kg, respectively; healthy control and vehicle control were given vehicle 1% hydroxypropyl methylcellulose (HPMC). During the whole experiment period, the animals were weighed and their health was monitored every day. If there are special circumstances, the relevant project leader should be notified in time and the corresponding records should be made. On the 28th day, after all the animals were weighed, they were euthanized after narcotizing and blood collecting, and the liver was taken. After the blood sample was processed into serum, ALT/AST/TG/TC were tested; for parts of the liver samples, liver TG and TC and the relative expression of collagen-1 alpha gene were tested, and for the other part, liver samples was taken for pathological analysis.

In assay [2] the target is T1, glutathione-S-transferase-labeled FXR human protein (Homo sapiens, UniProt Q96RI1).
T1 construct: purchased Invitrogen
T1 sequence (Q96RI1 1-486): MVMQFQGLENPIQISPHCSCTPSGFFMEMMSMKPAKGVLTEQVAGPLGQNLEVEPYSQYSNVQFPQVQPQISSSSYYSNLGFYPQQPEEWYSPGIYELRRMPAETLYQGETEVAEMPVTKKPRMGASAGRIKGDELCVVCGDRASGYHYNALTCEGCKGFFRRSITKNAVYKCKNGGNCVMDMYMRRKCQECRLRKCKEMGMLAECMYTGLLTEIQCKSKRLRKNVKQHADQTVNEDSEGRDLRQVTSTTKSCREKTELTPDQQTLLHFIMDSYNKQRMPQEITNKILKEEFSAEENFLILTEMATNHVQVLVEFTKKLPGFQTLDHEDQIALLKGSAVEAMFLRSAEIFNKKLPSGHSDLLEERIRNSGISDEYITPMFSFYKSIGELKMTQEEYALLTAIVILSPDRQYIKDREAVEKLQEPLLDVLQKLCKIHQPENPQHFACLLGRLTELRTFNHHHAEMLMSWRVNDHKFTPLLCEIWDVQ
Put plainly: FXR biochemical experiment (alphascreen, coactivator recruitment). The note with it: for EC50: alphascreen, activation of FXR binding reaction with steroid receptor coactivator, read-out: FXR enzyme activity EC50; for Emax: read-out: FXR enzyme activity Efficacy (activation efficacy percent). As for the experimental part:
FXR Biochemical Experiment
To test the effect of the compound on the activation of the FXR binding reaction by a Homogenous Proximity Luminescent Amplified Assay (alphascreen).
1. Protein: glutathione-S-transferase-labeled FXR human protein (Invitrogen)
2. Coactivator: biotin-labeled steroid receptor coactivator (Anaspec)
3. Detection reagent: Homogenous Proximity Luminescent Amplified Assay (alphascreen) detection kit (PerkinElmer)
1. Dilution of compounds: The test compound was prepared as a 40 μM DMSO solution, which was then diluted 3-fold to 10 concentration points. The reference compound was prepared as a 400 μM DMSO solution, and then was 1.5-fold diluted to 10 concentration points. The diluted DMSO solution was added to the micro-wells of a 384-well plate at a volume of 150 nl per well.
2. Glutathione-S-transferase-labeled FXR human protein and biotin-labeled steroid receptor coactivator were prepared to a mixed solution at a concentration of 0.4 nM and 30 nM, respectively. The mixed solution was added to the micro-wells of the 384-well plate at a volume of 15 μL per well, and incubated for 1 hour at room temperature.
3. […] The experiment process was protected from light. It was incubated for 1 hour at room temperature.
4. […] The experiment process was protected from light. It was incubated for 1 hour at room temperature.
5. EC50 test: Envision was used to excite at 680 nm and the […] signal at 520-620 nm was read.
6. Data analysis: Data analysis was conducted using Prism 5.0 to calculate the EC50 value of the activation effect of the compound.
(Bead proximity is the source of the signal in Alpha formats.)

Where [3] appears, read: highest signal relative to reference compound chenodeoxycholic acid (Examples 1-30).
Where [4] appears, read: highest signal relative to reference compound obeticholic acid (Examples 31-47).

Consider `O=C(O)c1cnc(N2C(=O)CCc3cc(OCc4c(-c5c(Cl)cccc5Cl)noc4C4CC4)ccc32)c(Cl)c1` [Compound 37], for which the “blood biochemical ALT/AST indicators” value in assay [1] (15 mg/kg, FIG. 1) is “significant decrease”. The “gene expression of collagen-alpha in the liver” value in assay [1] (15 mg/kg) and in assay [1] (60 mg/kg) was “significant decrease” throughout. Besides, the “nonalcoholic fatty liver score NAFLD (overall evaluation, pathological tissue analysis)” value in assay [1] (15 mg/kg, FIG. 5) is listed as “significant reduction”; in assay [1] (60 mg/kg, FIG. 5) it was “significant reduction”. In addition, the “total cholesterol (TC) and triglyceride (TG) levels in the liver” value in assay [1] (30 mg/kg) and in assay [1] (60 mg/kg) was “significant decrease” each time. Further, the “liver fibrosis (pathological tissue analysis)” value in assay [1] (60 mg/kg, FIG. 4) was “significant reduction”. Further, in assay [1] (60 mg/kg, FIG. 5), the “single steatosis, inflammatory molecules and ballooning change” value is listed as “remarkable efficacy”.
As to `Cc1sc(N2C(=O)C3(CC3)c3cc(OCc4c(-c5c(Cl)cccc5Cl)noc4C4CC4)ccc32)nc1C(=O)O` [Compound 8], in assay [2], the EC50 – broadly, the midpoint of the concentration-response curve – stood at 820 nM. Besides, in assay [2] (setting [3]), the Emax is 35%.
Consider `Cc1cc(C(=O)O)cnc1N1C(=O)CCc2cc(OCc3c(-c4c(Cl)cccc4Cl)noc3C3CC3)ccc21` [Compound 43], for which the EC50 in assay [2] came out at 20 nM. Moreover, the Emax in assay [2] (setting [4]) turned out to be 153%.
For the compound `O=C(O)c1cncc(N2C(=O)C3(CC3)c3cc(OCc4c(-c5c(Cl)cccc5Cl)noc4C4CC4)ccc32)c1` [Compound 24], in assay [2], the EC50 turned out to be 610 nM. For the same compound, the Emax in assay [2] (setting [3]) worked out at 124%.
The corresponding values for `CC1(C)C(=O)N(c2ccc(C(=O)O)cc2)c2ccc(OCc3c(-c4c(Cl)cccc4Cl)noc3C3CC3)cc21` [Compound 13] are 90 nM and 163%.
The matching figures for `O=C(O)c1cc(F)cc(N2C(=O)C3(CC3)c3cc(OCc4c(-c5c(Cl)cccc5Cl)noc4C4CC4)ccc32)c1` [Compound 27]: 410 nM and 218%.
In the case of `O=C(O)c1ccc(N2C(=O)CCc3cc(OCc4c(-c5c(Cl)cccc5Cl)noc4C4CC4)ccc32)s1` [Compound 46], the EC50 in assay [2] is 83 nM. Moreover, in assay [2] (setting [4]), the Emax came out at 126%.
With `O=C(O)c1ccc(N2C(=O)C3(CC3)c3cc(OCc4c(-c5c(Cl)cccc5Cl)noc4C4CC4)ccc32)nc1` [Compound 3], the EC50 in assay [2] turned out to be 180 nM. Also, the Emax in assay [2] (setting [3]) was 165%.
On to `COc1cc(C(=O)O)ccc1N1C(=O)CCc2cc(OCc3c(-c4c(Cl)cccc4Cl)noc3C3CC3)ccc21` [Compound 44], for which the half-maximal effective concentration (EC50) in assay [2] worked out at 58 nM. Further, the Emax in assay [2] (setting [4]) was 117%.
For the compound `O=C(O)c1ccc(N2C(=O)C3(CC3)c3cc(OCc4c(-c5c(Cl)cccc5Cl)noc4C4CC4)ccc32)s1` [Compound 5], the EC50 in assay [2] is 150 nM. Further, the Emax in assay [2] (setting [3]) was 242%.
On to `O=C(O)c1cccc(CN2C(=O)C3(CCCC3)c3cc(OCc4c(-c5c(Cl)cccc5Cl)noc4C4CC4)ccc32)c1` [Compound 11], for which the EC50 in assay [2] is 580 nM. In addition, the Emax in assay [2] (setting [3]) is 82%.
